Seven molecules from ChEMBL document CHEMBL1134089, “Arylsulphonyl hydroxamic acids: potent and selective matrix metalloproteinase inhibitors” (Bioorg Med Chem Lett, 2001) can be followed below.

The target of one series is T1, Interstitial collagenase (Homo sapiens, UniProt P03956).
T1 sequence (P03956 whole entry): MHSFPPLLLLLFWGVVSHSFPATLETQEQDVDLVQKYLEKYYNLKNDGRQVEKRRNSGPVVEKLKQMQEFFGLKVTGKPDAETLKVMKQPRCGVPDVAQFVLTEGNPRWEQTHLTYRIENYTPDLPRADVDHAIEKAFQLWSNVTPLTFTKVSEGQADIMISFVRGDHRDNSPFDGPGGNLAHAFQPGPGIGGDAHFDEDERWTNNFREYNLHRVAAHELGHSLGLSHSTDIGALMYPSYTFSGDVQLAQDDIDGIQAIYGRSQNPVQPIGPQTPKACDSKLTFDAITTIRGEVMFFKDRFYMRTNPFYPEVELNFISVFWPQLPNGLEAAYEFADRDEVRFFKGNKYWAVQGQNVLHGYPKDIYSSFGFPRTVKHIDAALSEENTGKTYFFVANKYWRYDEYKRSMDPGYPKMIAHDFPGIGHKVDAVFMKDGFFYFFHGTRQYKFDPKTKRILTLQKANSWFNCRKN
Briefly: Inhibition of Matrix metalloprotease-1.

In a further series the target is Stromelysin-1 (Homo sapiens, UniProt P08254). Description: Inhibition of Matrix metalloprotease-3.
Stromelysin-1, sequence (P08254 whole entry): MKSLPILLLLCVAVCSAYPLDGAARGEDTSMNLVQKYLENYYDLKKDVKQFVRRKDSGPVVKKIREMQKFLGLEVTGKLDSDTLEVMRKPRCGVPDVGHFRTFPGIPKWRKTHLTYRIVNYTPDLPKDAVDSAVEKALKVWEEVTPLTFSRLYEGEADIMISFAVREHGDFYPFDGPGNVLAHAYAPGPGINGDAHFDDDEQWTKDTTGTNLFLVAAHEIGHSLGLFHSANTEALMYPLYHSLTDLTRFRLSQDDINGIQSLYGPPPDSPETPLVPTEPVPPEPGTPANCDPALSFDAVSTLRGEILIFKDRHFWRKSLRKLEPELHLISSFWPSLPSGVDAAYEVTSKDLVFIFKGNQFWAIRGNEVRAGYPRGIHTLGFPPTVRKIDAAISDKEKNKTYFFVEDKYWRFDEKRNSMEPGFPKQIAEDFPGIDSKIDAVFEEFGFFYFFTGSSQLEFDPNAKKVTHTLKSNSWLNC
Series [1] deals with Matrix metalloproteinase-9 (Homo sapiens, UniProt P14780). Description: Inhibition of Matrix metalloprotease-9.
Matrix metalloproteinase-9, sequence (P14780 whole entry): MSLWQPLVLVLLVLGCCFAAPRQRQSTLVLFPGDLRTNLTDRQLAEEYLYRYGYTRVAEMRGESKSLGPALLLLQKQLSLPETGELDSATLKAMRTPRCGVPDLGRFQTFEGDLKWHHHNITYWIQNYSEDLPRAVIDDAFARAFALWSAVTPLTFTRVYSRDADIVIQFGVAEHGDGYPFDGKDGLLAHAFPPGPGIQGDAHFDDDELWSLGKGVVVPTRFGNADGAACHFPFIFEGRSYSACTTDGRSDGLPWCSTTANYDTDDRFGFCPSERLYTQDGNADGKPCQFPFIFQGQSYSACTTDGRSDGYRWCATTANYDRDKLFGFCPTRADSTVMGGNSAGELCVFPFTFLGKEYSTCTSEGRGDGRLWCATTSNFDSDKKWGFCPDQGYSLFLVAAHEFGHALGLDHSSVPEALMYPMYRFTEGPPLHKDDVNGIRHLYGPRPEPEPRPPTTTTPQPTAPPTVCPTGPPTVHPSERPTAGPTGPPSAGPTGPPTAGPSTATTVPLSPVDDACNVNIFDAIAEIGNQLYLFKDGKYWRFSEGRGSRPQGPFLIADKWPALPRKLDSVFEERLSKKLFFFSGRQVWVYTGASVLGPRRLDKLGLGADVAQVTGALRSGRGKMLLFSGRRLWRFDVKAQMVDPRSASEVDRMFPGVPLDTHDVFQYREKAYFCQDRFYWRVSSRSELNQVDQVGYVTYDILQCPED
The target in series [2] is 72 kDa type IV collagenase (Homo sapiens, UniProt P08253). Briefly: Inhibition of Matrix metalloprotease-2.
72 kDa type IV collagenase, sequence (P08253 whole entry): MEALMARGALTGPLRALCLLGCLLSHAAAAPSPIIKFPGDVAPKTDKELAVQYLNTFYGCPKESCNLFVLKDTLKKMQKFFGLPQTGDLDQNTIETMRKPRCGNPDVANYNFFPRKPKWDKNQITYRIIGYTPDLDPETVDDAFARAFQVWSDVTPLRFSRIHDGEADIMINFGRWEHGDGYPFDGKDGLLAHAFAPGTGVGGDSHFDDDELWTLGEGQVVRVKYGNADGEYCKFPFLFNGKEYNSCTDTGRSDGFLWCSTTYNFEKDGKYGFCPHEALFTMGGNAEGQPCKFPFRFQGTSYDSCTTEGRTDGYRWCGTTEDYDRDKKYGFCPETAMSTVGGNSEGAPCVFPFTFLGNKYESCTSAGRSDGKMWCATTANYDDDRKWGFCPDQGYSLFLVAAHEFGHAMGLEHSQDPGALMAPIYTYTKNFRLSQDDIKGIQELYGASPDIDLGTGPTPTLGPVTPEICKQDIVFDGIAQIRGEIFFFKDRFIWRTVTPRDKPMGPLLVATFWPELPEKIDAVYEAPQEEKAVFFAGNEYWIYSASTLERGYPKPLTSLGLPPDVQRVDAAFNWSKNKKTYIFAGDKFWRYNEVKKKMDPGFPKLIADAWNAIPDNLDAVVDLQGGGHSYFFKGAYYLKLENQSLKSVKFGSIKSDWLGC
The next series addresses Neutrophil collagenase (Homo sapiens, UniProt P22894). Briefly: Inhibition of Matrix metalloprotease-8.
The nature of series [3]: Inhibitory concentration required against shedding of IL6-R from stimulated PBMCs. The format is functional.
Series [4] is described as follows: Inhibitory concentration required against shedding of TNF-alpha from stimulated PBMCs. The format is functional.
A short description of series [5]: Inhibitory concentration required against shedding of TNF RII from stimulated PBMCs. The format is functional.
Series [6] can be described thus: Inhibitory concentration required against shedding of IL-1 RII from stimulated PBMCs. In kind it is functional.
Series [7] deals with Rattus norvegicus. Description: Percent inhibition against adjuvant arthritis in rats tested in vivo at 10 mg/kg. The format is functional.
A short description of series [8]: (§1) Inhibitory concentration required against shedding of L-Selectin from stimulated PBMCs. In kind it is functional, Homo sapiens.
In another series the test system is Mus musculus. Briefly: Percent inhibition against B16-F10 mouse melanoma tested in vivo at 30 mg/kg. In kind it is functional.
Series [9] deals with Rattus norvegicus. Description: Percent inhibition against adjuvant arthritis in rats tested in vivo at 3 mg/kg. In kind it is functional.
Series [10] deals with Rattus norvegicus. Description: Plasma level evaluated in the rat after oral dosing of 10 mg/kg. Particulars: in vivo. The format is ADME, organism-based. Further details: dose 10 mg/kg, route oral.
Series [11] in a line: as §1. In kind it is functional.

Structures are written as SMILES.

Neutrophil collagenase, sequence (P22894 whole entry): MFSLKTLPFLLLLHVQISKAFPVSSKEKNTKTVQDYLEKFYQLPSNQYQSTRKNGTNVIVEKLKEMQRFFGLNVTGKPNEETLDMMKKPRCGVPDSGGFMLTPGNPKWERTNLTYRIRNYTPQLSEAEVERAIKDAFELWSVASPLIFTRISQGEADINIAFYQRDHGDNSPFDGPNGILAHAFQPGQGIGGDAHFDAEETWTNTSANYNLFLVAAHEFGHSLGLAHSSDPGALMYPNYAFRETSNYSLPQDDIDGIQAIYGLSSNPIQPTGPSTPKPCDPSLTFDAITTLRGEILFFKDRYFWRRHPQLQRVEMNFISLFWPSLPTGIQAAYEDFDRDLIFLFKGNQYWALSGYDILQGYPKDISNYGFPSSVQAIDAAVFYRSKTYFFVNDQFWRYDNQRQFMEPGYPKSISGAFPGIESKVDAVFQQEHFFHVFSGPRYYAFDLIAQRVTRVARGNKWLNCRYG

Take `O=C(c1ccc(S(=O)(=O)CC(CCCc2ccccc2)C(=O)NO)cc1)c1cc[n+]([O-])cc1` (centres undefined): the IC50 on Interstitial collagenase was found to be 20 µM; at Stromelysin-1 it was 0.35 µM; in series [1], 0.15 µM; in [2] it was 0.05 µM; on Neutrophil collagenase, 0.08 µM.

As for `O=C(NO)C(CCCc1ccccc1)CS(=O)(=O)c1ccc(C(O)c2ccccc2)cc1` (centres undefined), the IC50 on Interstitial collagenase came to 25 µM; at Stromelysin-1 it was 2.5 µM; in series [1], 2.5 µM; in series [2] it was 1.7 µM; on Neutrophil collagenase, 3 µM.

With `O=C(c1ccccc1)c1ccc(S(=O)(=O)CC(CCCc2ccccc2)C(=O)NO)cc1` (centres undefined), the IC50 is over 100 µM in [3] (Homo sapiens); over 100 µM in series [4] (Homo sapiens); over 100 µM in series [5] (Homo sapiens); 0.1 µM against Stromelysin-1; over 100 µM in [6] (Homo sapiens); over 100 µM in series [8]. The IC50 on Neutrophil collagenase turned out to be 0.015 µM. The inhibition in vivo at 10 mg/kg in the series with Rattus norvegicus [7] stood at 40%. For the same molecule, in the series on Mus musculus, the inhibition in vivo at 30 mg/kg is 40%.

On to `O=C(NO)C(CCCc1ccccc1)CS(=O)(=O)c1ccc(Cc2ccccc2)cc1` (centres undefined), for which the IC50 was over 30 µM against Interstitial collagenase; over 2 µM at Stromelysin-1; 0.15 µM in series [1]; 0.2 µM in [2]; 0.3 µM on Neutrophil collagenase.

In the case of `O=C(c1ccccc1)c1ccc(S(=O)(=O)CC(CCCc2ccccc2)C(=O)O)cc1` (centres undefined), the IC50 came to 20 µM on Interstitial collagenase; 1.2 µM at Stromelysin-1; 0.4 µM in series [1]; 0.8 µM in series [2]; 0.3 µM on Neutrophil collagenase.

Regarding `Cl.O=C(c1ccncc1)c1ccc(S(=O)(=O)CC(CCCc2ccccc2)C(=O)NO)cc1` (centres undefined), the IC50 in series [3] (Homo sapiens) is over 100 µM; against Interstitial collagenase, 10 µM; in series [4] (Homo sapiens), over 100 µM; in series [5] (Homo sapiens), over 100 µM; on Stromelysin-1, 0.1 µM; in series [1], 0.015 µM. Moreover, the IC50 is 0.003 µM in [2], 37 µM in series [6] (Homo sapiens), over 100 µM in [8] and 0.003 µM on Neutrophil collagenase. The inhibition in vivo at 3 mg/kg in the series on Rattus norvegicus [9] was 50%. In the series with Rattus norvegicus [10], the Plasma level is 300 ng/mL. Moreover, the inhibition in vivo at 30 mg/kg in the series with Mus musculus amounted to 80%.

For `CNC(=O)[C@@H](NC(=O)C(CC(C)C)C(O)C(=O)NO)C(C)(C)C` (single isomer, unassigned), the IC50 stood at 10 µM in series [3]; 2 µM in series [4]; 1 µM in [5]; 5 µM in series [11]; 10 µM in series [6]. The inhibition in vivo at 10 mg/kg with Rattus norvegicus [7] was 50%. In the series on Mus musculus, this molecule had an inhibition in vivo at 30 mg/kg of 40%.
